Patent publication US20260130900A1, “Controlled Release Pharmaceutical Composition” (Daewoong Pharmaceutical Co., Ltd., priority 2022, published 2026)

Experiment: Single-dose escalating clinical testing, safety/tolerability of the active ingredient
Assay type: in vivo, human
Description: In order to confirm the safety/tolerability of the active ingredient in the human body, side effects were checked in healthy adult subjects.
The clinical testing was designed for 32 healthy adult subjects in a randomized, double-blinded, placebo-controlled, single-dose escalating manner, as shown in Table 1 below. The capsule tablets used in this clinical testing were produced by using Vcaps® enteric-coated capsules containing only the active ingredient in hydrochloride form without additional excipients, and filling capsules by volume. The ingredients of the enteric-coated tablet (1 tablet) used in the clinical testing are shown in Table 2 below, and were named ‘Comparative Example 1’. In addition, for the enteric-coated tablet administrated group, 5 tablets were administered at a time.

With `O[C@H]1CCCN[C@@H]1CCCn1cnc2c(Cl)c(Cl)ccc21` [API, (2R,3S)-2-(3-(4,5-dichloro-1H-benzo[d]imidazol-1-yl)propyl) piperidin-3-ol 1HCl] the “time of occurrence of nausea and vomiting side effects versus exposure in the body” value (single administration, FIG. 1) was “the majority of cases occur before the blood concentration in the body increases” and the “most frequently occurring adverse reactions” value (single oral administration 100-600 mg, enteric coated capsule or tablet, healthy adult subjects) was “gastrointestinal adverse reactions including nausea, vomiting, diarrhea, and abdominal pain”.
